Measured values published in PMC9213561, “3-nitroimidazo[1,2-b]pyridazine as a novel scaffold for antiparasitics with sub-nanomolar anti-Giardia lamblia activity” (International Journal for Parasitology: Drugs and Drug …, 2022).
Where two headings read alike, the source gives them in different places.

Assays:
[1] = system: MRC-5 (human lung fibroblasts MRC-5SV40); assay: Cytotoxicity on MRC-5 cells; format: cell-based
Protocol: (§1) G. lamblia trophozoites (WBC6) were seeded into 96-well-plates in 0.2 mL […]-medium containing 10^3 trophozoites per well in the presence of the compounds dissolved in dimethyl sulfoxide (DMSO, final concentration 0.25%) or with DMSO as a solvent control and incubated for 72 h at 37 °C in an anaerobic chamber (80% N2, 10% H2, 10% CO2). Then, plates were centrifuged (2 min, 1000 rpm), medium was removed, and cells were washed once with PBS containing 1 g/L glucose. Then, PBS-glucose containing 10 mg/L resazurin was added, and plates were incubated for up to 5 h at 37 °C. Fluorescence reading (ex 530 nm/em 590 nm) was performed at various time points, and the linear increase of fluorescence was used as a marker for cell viability. IC50 values were calculated using the logit-log algorithm and are given as mean values with 95%-confidence intervals ([[…], 2019]). The assays for growth inhibition of T. b. brucei, T. cruzi, L. infantum, P. falciparum and MRC-5 (human lung fibroblasts MRC-5SV40) were previously described ([Blaazer et al., 2014]). PDE activity was determined exactly as described ([de Heuvel et al., 2021]; [Kunz et al., 2005], [2017b]). All assays were carried out in triplicates and no more than 20% substrate was hydrolyzed in all reactions. Compounds were dissolved in DMSO and the final DMSO concentration was 1% in all reaction mixes. Control reactions with DMSO alone were always included. Data were analyzed using the GraphPad Prism software package (v7.0, GraphPad, San Diego).

[2] = system: Trypanosoma brucei brucei; assay: Growth inhibition of T. b. brucei; format: cell-based; conditions: mean ± standard deviation, n ≥ 2
Protocol: (§2) G. lamblia trophozoites (WBC6) were seeded into 96-well-plates in 0.2 mL Keister-medium containing 10^3 trophozoites per well in the presence of the compounds dissolved in dimethyl sulfoxide (DMSO, final concentration 0.25%) or with DMSO as a solvent control and incubated for 72 h at 37 °C in an anaerobic chamber (80% N2, 10% H2, 10% CO2). Then, plates were centrifuged (2 min, 1000 rpm), medium was removed, and cells were washed once with PBS containing 1 g/L glucose. Then, PBS-glucose containing 10 mg/L resazurin was added, and plates were incubated for up to 5 h at 37 °C. Fluorescence reading (ex 530 nm/em 590 nm) was performed at various time points, and the linear increase of fluorescence was used as a marker for cell viability. IC50 values were calculated using the logit-log algorithm and are given as mean values with 95%-confidence intervals ([Müller et al., 2020]; [Müller and Hemphill, 2013]; [Müller and Müller, 2019]). The assays for growth inhibition of T. b. brucei, T. cruzi, L. infantum, P. falciparum and MRC-5 (human lung fibroblasts MRC-5SV40) were previously described ([Blaazer et al., 2014]). PDE activity was determined exactly as described ([de Heuvel et al., 2021]; [Kunz et al., 2005], [2017b]). All assays were carried out in triplicates and no more than 20% substrate was hydrolyzed in all reactions. Compounds were dissolved in DMSO and the final DMSO concentration was 1% in all reaction mixes. Control reactions with DMSO alone were always included. Data were analyzed using the GraphPad Prism software package (v7.0, GraphPad, San Diego).

hPDE4B = hPDE4B (Homo sapiens, UniProt Q07343); assay: Human PDE4 activity inhibition; format: biochemical; conditions: for Ki: mean ± standard deviation, n ≥ 2
Protocol: as §2

Trypanosoma cruzi = assay: Growth inhibition of T. cruzi; format: cell-based; conditions: mean ± standard deviation, n ≥ 2
Protocol: as §2

GlPDE (aa588-1371) = GlPDE (aa588-1371) (Giardia lamblia, UniProt A0A644EZ75); assay: GlPDE activity inhibition; format: biochemical; conditions: for Ki: mean ± standard deviation, n ≥ 2
Protocol: as §2
Figure S69. Representative dose-response curve of 11 against GlPDE (aa588-1371) enzyme (substrate concentration: 1 μM).

Plasmodium falciparum = assay: Growth inhibition of P. falciparum; format: cell-based; conditions: mean ± standard deviation, n ≥ 2, read-out: IC50 (µM) P.f.
Protocol: as §1

[3] = system: G. lamblia trophozoites (WBC6); assay: Growth inhibition of G. lamblia trophozoites (WBC6), resazurin viability read-out; format: cell-based, Giardia lamblia; conditions: for IC50: Giardia duodenalis; for fold decrease of anti-Giardia activity: compared with 18; for fold higher anti-Giardia activity than metronidazole: versus metronidazole IC50 = 0.8 μM
Protocol: as §2
Figure S67. Representative drug susceptibility curves of G. lamblia WBC6. Trophozoites were grown anaerobically in the presence of various concentrations of 17 (red), 29 (blue) and the reference compound metronidazole (MET, black). After 72 h, growth of cells was monitored by a cell viability assay based on the reduction of resazurin to a pink fluorescent product. Measured fluorescence units were normalized to the DMSO control. Data points and error bars represent mean and standard error of 4 replicates.

Leishmania infantum = assay: Growth inhibition of L. infantum; format: cell-based; conditions: mean ± standard deviation, n ≥ 2
Protocol: as §2

T.b. brucei = system: T.b. brucei; set-up: method as in Blaazer et al., 2018; Kunz et al., 2017b; conditions: Fig. 2; ref Blaazer et al., 2018; Kunz et al., 2017b; cited from earlier work
TbrPDEB1 = system: TbrPDEB1; set-up: method as in Blaazer et al., 2018; Kunz et al., 2017b; conditions: Fig. 2; ref Blaazer et al., 2018; Kunz et al., 2017b; cited from earlier work
G. lamblia = system: G. lamblia; set-up: method as in Blaazer et al., 2018; Kunz et al., 2017b; conditions: Fig. 2; ref Blaazer et al., 2018; Kunz et al., 2017b; cited from earlier work
GlPDE = system: GlPDE; set-up: method as in Blaazer et al., 2018; Kunz et al., 2017b; conditions: Fig. 2; ref Blaazer et al., 2018; Kunz et al., 2017b; cited from earlier work
[4] = MRC5, mean ± standard deviation, n ≥ 2, read-out: IC50 (nM) MRC-5
[5] = WBC6 trophozoites, 72 h, anaerobic, mean ± standard error (95% CI, logit-log), quadruplicates, read-out: IC50 (nM) G.l.

Sequence of hPDE4B (Q07343 330-659 limits assumed): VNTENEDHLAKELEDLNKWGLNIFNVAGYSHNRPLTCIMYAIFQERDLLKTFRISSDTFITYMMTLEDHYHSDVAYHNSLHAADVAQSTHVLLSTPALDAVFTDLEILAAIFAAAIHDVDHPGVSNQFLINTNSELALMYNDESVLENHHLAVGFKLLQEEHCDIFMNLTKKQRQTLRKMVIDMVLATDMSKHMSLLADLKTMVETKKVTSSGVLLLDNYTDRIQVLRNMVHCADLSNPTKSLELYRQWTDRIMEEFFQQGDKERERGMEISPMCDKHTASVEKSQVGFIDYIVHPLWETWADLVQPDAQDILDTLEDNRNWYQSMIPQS

Compound: COc1ccc(C2=NN(C3CCN(c4ccc5ncc([N+](=O)[O-])n5n4)CC3)C(=O)CC2)cc1Cl [Compound 19, 6-(3-Chloro-4-methoxyphenyl)-2-(1-(3-nitroimidazo[1,2-b]pyridazin-6-yl)piperidin-4-yl)-4,5-dihydropyridazin-3(2H)-one]
- IC50 [1, 4]: > 64000 nM
- IC50 [2]: 22.2 ± 15.9 µM
- fold decrease of affinity for hPDE4B (hPDE4B; compared to 18): 60 fold
- Ki (hPDE4B): 0.2 ± 0.05 µM
- IC50 (Trypanosoma cruzi): 5.4 ± 4.1 µM
- Ki (GlPDE (aa588-1371)): > 1000 µM
- IC50 (Plasmodium falciparum): 7.2 ± 0.4 µM
- IC50 [3, 5]: 19 ± 3.2 nM
- fold decrease of anti-Giardia activity [3]: 100 fold
- fold higher anti-Giardia activity than metronidazole [3]: 40 fold
- IC50 (Leishmania infantum): 28.9 ± 31 µM

Compound: COc1ccc(C2=NN(C3CCN(c4ccc5ncc([N+](=O)[O-])n5n4)CC3)C(=O)CC2)cc1OC [Compound 18, 6-(3,4-Dimethoxyphenyl)-2-(1-(3-nitroimidazo[1,2-b]pyridazin-6-yl)piperidin-4-yl)-4,5-dihydropyridazin-3(2H)-one]
- IC50 [1, 4]: > 64000 nM
- IC50 [2]: > 64 µM
- fold decrease of hPDE4 affinity (hPDE4B; compared with 11): 20 fold
- Ki (hPDE4B): 0.0032 ± 0.0004 µM
- IC50 (Trypanosoma cruzi): 50.9 ± 4.7 µM
- GlPDE Ki over IC50 for Giardia growth inhibition (GlPDE (aa588-1371)): over 50,000 fold
- Ki (GlPDE (aa588-1371)): > 10 µM
- IC50 (Plasmodium falciparum): 33.8 ± 37 µM
- IC50 [3, 5]: 0.2 ± 0.1 nM
- IC50 ([3]; text value in pM, read-out: anti-Giardia IC50 on growth inhibition): ~0.2 nM
- fold increase in anti-Giardia potency ([3]; compared with 11 (cyclohexene ring removed)): 2.5 fold
- IC50 (Leishmania infantum): 26.4 ± 8.6 µM

Compound: COc1ccc(C2=NN(C3CCN(c4ccc5nccn5n4)CC3)C(=O)CC2)cc1OC [Compound 20, 6-(3,4-Dimethoxyphenyl)-2-(1-(imidazo[1,2-b]pyridazin-6-yl)piperidin-4-yl)-4,5-dihydropyridazin-3(2H)-one]
- IC50 [1, 4]: > 64000 nM
- IC50 [2]: > 64 µM
- Ki (hPDE4B): 0.005 ± 0.001 µM
- IC50 (Trypanosoma cruzi): > 64 µM
- GlPDE inhibition (in words) (GlPDE (aa588-1371)): no GlPDE inhibition
- Ki (GlPDE (aa588-1371)): > 1000 µM
- IC50 (Plasmodium falciparum): > 64 µM
- IC50 [3, 5]: 930 ± 100 nM
- fold decrease of anti-Giardia activity [3]: 4,500 fold
- IC50 (Leishmania infantum): > 64 µM

Compound: COc1ccc(C2=NN(C3CCCCCC3)C(=O)[C@H]3CC=CC[C@@H]23)cc1OCCCCOc1ccc(-c2nn[nH]n2)cc1 [Compound 9]
- IC50 (T.b. brucei): 0.08 µM
- IC50 (G. lamblia): 6.9 µM
- IC50 (GlPDE): 0.8 µM

Compound: COc1ccc(C2=NN(C3CCN(c4ccc5ncc([N+](=O)[O-])n5n4)CC3)C(=O)[C@@H]3CC=CC[C@H]23)cc1OC [Compound 11, (4aS,8aR)-4-(3,4-Dimethoxyphenyl)-2-(1-(3-nitroimidazo[1,2-b]pyridazin-6-yl)piperidin-4-yl)-4a,5,8,8a-tetrahydrophthalazin-1(2H)-one]
- IC50 [1, 4]: > 64000 nM
- IC50 [2]: 1 ± 0.7 µM
- fold more active against human PDE4 than against GlPDE (hPDE4B; Ki hPDE4 versus Ki GlPDE): 3,000 fold
- Ki (hPDE4B): 0.00016 ± 2e-05 µM
- IC50 (Trypanosoma cruzi): 5.9 ± 4.5 µM
- Ki (GlPDE (aa588-1371)): 0.5 ± 0.3 µM
- IC50 (Plasmodium falciparum): 6.3 ± 0.4 µM
- IC50 [3, 5]: 0.5 ± 0.2 nM
- fold higher anti-Giardia activity than metronidazole [3]: > 1,000 fold
- IC50 (Leishmania infantum): 27.4 ± 25.3 µM

Compound: COc1ccc(C2=NN(C3CCN(S(=O)(=O)c4cccc5cccnc45)CC3)C(=O)[C@@H]3CC=CC[C@H]23)cc1OC [Compound 10]
- IC50 (T.b. brucei): 0.42 µM
- IC50 (TbrPDEB1): 0.03 µM
- IC50 (G. lamblia): 1.5 µM
- IC50 (GlPDE): 3 µM

Compound: COc1ccc(C2=NN(C3CCN(c4ccc5ncc([N+](=O)[O-])n5n4)CC3)C(=O)[C@H]3CC=CC[C@@H]23)cc1OC1CCCC1 (relative stereo) [Compound 12, cis-4-(3-(Cyclopentyloxy)-4-methoxyphenyl)-2-(1-(3-nitroimidazo[1,2-b]pyridazin-6-yl)piperidin-4-yl)-4a,5,8,8a-tetrahydrophthalazin-1(2H)-one]
- IC50 [1, 4]: > 64000 nM
- IC50 [2]: 2.1 µM
- IC50 (Trypanosoma cruzi): 2.2 µM
- IC50 (Plasmodium falciparum): 3 ± 1.9 µM
- IC50 [3, 5]: 9.3 ± 0.6 nM
- IC50 (Leishmania infantum): 25.9 ± 24.4 µM

Compound: COc1ccc(C2=NN(C3CCN(c4ccc5ncc([N+](=O)[O-])n5n4)CC3)C(=O)[C@H]3CC=CC[C@@H]23)cc1OCc1cccnc1 (relative stereo) [Compound 15, cis-4-(4-Methoxy-3-(pyridin-3-ylmethoxy)phenyl)-2-(1-(3-nitroimidazo[1,2-b]pyridazin-6-yl)piperidin-4-yl)-4a,5,8,8a-tetrahydrophthalazin-1(2H)-one]
- IC50 ([1]; MRC5, Table S1, mean ± standard deviation, n ≥ 2, read-out: IC50 (µM) MRC-5): 14900 ± 11500 nM
- IC50 [1, 4]: 15000 nM
- IC50 [2]: 2.2 µM
- IC50 (Trypanosoma cruzi): 2.1 µM
- IC50 (Plasmodium falciparum): 2.1 ± 0.8 µM
- IC50 [3, 5]: 6.8 ± 1.5 nM
- IC50 (Leishmania infantum): 8.1 µM
